In patent publication US20260365677A1, “NEW CONTRAST AGENTS FOR USE IN DIAGNOSTIC IMAGING” (Bayer Aktiengesellschaft, priority 2022, published 2026):

Key:
[1] = Exploratory water solubility in 10 mM Tris-HCl buffer, pH 7.4; type: physicochemical; details: aqueous buffer (10 mM Tris-HCl), 20 °C
Protocol: The exploratory water solubility of the compounds is determined at room temperature (20 °C) in 0.5 mL buffer solution (10 mM Tris-HCl, pH 7.4) in the microcentrifuge tubes (Eppendorf, 2.0 mL safe-lock caps). The solid compounds were added stepwise to the buffer solution. More substance is added once all the suspended material is dissolved until an equilibrium between undissolved and dissolved substance is reached. The suspension was mixed using a shaker (Heidolph Reax 2000) and treated 5 min in an ultrasound bath (Bandelin, Sonorex Super RK255H). The Gadolinium concentration of the test substance in the clear solution is measured by ICP-MS.

[2] = tested on: freshly isolated rat hepatocytes; assay: Uptake into freshly isolated rat hepatocytes; type: cell-based; details: 100 μmol Gd/L, 10 min, 37 °C, relative to RC1 (Gd-EOB-DTPA)
Protocol: Triplicates were performed for each test item.

[3] = molecular target: T1, OATP1B1 (Homo sapiens, UniProt Q9Y6L6); assay: Uptake into stable transfected OATP1B1 HEK 293 cells; type: cell-based; details: 100 μM, 40 min, relative to RC1 (Gd-EOB-DTPA)
T1 construct: expressed in transfected cells
T1 sequence (Q9Y6L6 1-691): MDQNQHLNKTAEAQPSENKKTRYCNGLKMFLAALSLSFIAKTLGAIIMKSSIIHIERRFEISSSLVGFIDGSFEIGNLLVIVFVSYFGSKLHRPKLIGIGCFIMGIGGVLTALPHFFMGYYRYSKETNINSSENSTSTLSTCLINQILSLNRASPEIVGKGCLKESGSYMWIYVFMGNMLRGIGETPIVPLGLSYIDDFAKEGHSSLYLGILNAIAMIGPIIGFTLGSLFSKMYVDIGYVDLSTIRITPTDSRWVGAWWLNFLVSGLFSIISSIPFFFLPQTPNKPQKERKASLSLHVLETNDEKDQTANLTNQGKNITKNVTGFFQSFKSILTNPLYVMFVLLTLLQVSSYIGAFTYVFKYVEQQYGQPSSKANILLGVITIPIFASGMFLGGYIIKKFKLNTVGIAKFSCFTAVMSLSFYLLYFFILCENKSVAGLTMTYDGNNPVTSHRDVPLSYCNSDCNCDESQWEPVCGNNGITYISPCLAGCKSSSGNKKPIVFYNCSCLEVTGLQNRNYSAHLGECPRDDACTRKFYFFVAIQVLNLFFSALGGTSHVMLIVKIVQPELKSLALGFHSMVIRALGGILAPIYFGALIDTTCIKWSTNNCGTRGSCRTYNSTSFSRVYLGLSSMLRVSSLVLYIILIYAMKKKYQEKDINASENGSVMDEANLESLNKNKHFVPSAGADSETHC
Protocol: Human stable transfected OATP1 B1 human embryonic kidney 293 cells (OATP1 B1 HEK 293, SLCO1B1, Entrez Gene ID: 10599) were used (Leonhardt M et al. Drug Metab Dispos. 2010 July; 38(7):1024-8). The following culture medium was used: 500 mL DMEM (Dulbecco's Modified Eagle Medium—high Glucose, D6429), 50 mL FCS (fetal bovine serum, Fa. Sigma, F7524), 5.8 mL G418 (Geneticin, Fa. Gibco 10131-027) and 5 mL Pen-Strep. (Penicillin-Streptomycin, Fa. Gibco, Ref 15140-122). Cryopreserved cells were shortly thawed in water bath and diluted in 10 mL warm culture medium (37 °C). After medium change the cells were grown for 3d in a 25 cm^2 cell culture flask. After 3 to 5d the cells were transferred into 75 cm^2 flasks. For the splitting the cells were incubated with 1.5 mL trypsin (Trypsin-EDTA (1×) 0.05%, Ref 25300-054 100 ml, Fa. Gibco) for 3-5 min in the incubator (37 °C, 5% CO2 and 95% oxygen). After centrifugation and washing with medium the cells were counted (50 μL cell suspension and 50 μL trypan blue (Trypan Blue Solution, 93595-50 ml, Fa. Fluka). Cells were cultured (1×10^5 cells/well) in poly-D-lysine coated 24-well plates (Fa. Corning, Ref: 354414) in 1.5 mL medium per well. After 48 h in the incubator the medium was changed and 1.5 mL/well sodium butyrate containing medium were added (40 mL culture medium plus 400 μL Na-Butyrate, Fa. Sigma Aldrich B5887-5G, 250 mg in 2.27 mL MilliQ water). After 24 h in the incubator the medium was vacuumed off and 1.5 mL transport buffer was added and incubated for 10 min. The transport buffer contains the following ingredients: 500 mL HBSS (Hank's balanced salt solution, Hyclone, SH30268.01), 5 mL HEPES buffer (4-(2-hydroxyethyl)-1-piperazine-ethanesulfonic acid, Gibco 15630-056) and 3.9 mL glucose (Sigma, G8270-100, 90 g/200 mL MilliQ water). All test items were prepared in transport buffer at a final concentration of 100 μM from stock solutions (180 to 500 mM concentration). The OATP1B1 HEK 293 cells were incubated with test solutions (test item in transport buffer 500 μL) for 40 min on a thermoshaker without shaking (PHMP, Fa. Grant Bio). Triplicates were performed for each test item. After incubation the cells were washed with 2 mL of cold PBS (+) buffer (Dulbeccos PBS+, Fa. Gibco). […] As a reference standard Gd-EOB-DTPA (gadoxetate) is used in the same well plate. The OATP1B1 HEK 293 uptake of the test compound is calculated relative to gadoxetate (resulting in the unit % of RC1).

[4] = Partition coefficient (log P butanol/buffer); type: physicochemical; details: 50 mM Tris-HCl, pH 7.4, 10 μM, room temperature
Protocol: The partition coefficient P (log P=log(Cbutanol/Cbuffer)) was determined in buffered aqueous solution (10 μM of compound in 0.5 mL 50 mM Tris-HCl saturated with Butanol, pH 7.4) and 1-butanol 1+1 and the mixture was shaken for 2 h at room temperature (n=3). The Gd-concentrations in each phase. CObutano, and Cbuffer were measured by ICP-MS (The Chemistry of Contrast Agents in Medical Magnetic Resonance Imaging” 2nd Ed. Merbach A S, Helm L, Toth E, eds. Hoboken, NJ: Wiley 2013).

[5] = No-observed-adverse-effect level (NOAEL) in mice; details: intravenous bolus injection

SMILES | Solubility [1] [mM] | Uptake rat hepatocytes [2] | Uptake into OATP1B1-HEK 293 cells [3] | Log P [4] | NOAEL [5] [mmol Gd/kg bw]
CCCCOc1ccc(C[C@H]2CN(CC(=O)[O-])CCN(CC(=O)[O-])CCN(CC(=O)O)CCN2CC(=O)[O-])cc1.[Gd+3] (single isomer, unassigned; stereoisomer 1) [Example 12] | 211 | 110 % of RC1 | 119 % of RC1 | −0.45 | –
CCOc1ccc(CC2CN(CC(=O)[O-])CCN(CC(=O)[O-])CCN(CC(=O)O)CCN2CC(=O)[O-])cc1.[Gd+3] (single isomer, unassigned; diastereomer 2) [Example 9, Gadolinium-2,2′,2″-[10-(carboxymethyl)-2-(4-ethoxybenzyl)-1,4,7,10-tetraazacyclododecane-1,4,7-triyl]triacetate (racemic diastereomer 2)] | >145 | 42 % of RC1 | 60 % of RC1 | −1.36 | –
CCOCCOCCOc1ccc(C[C@H]2CN(CC(=O)[O-])CCN(CC(=O)[O-])CCN(CC(=O)O)CCN2CC(=O)[O-])cc1.[Gd+3] [Example 2, Gadolinium-2,2′,2″-[(2S)-10-(carboxymethyl)-2-{4-[2-(2-ethoxyethoxy)ethoxy]benzyl}-1,4,7,10-tetraazacyclododecane-1,4,7-triyl]triacetate] | >55 | 65 % of RC1 | 282 % of RC1 | −1.52 | –
CCOc1ccc(CC2CN(CC(=O)[O-])CCN(CC(=O)[O-])CCN(CC(=O)O)CCN2CC(=O)[O-])cc1.[Gd+3] (stereo not shown) [Example 7, Gadolinium-2,2′,2″-[10-(carboxymethyl)-2-(4-ethoxybenzyl)-1,4,7,10-tetraazacyclododecane-1,4,7-triyl]triacetate] | >403 | 73 % of RC1 | 103 % of RC1 | −1.32 | 1.50
CCOCCOCCOCCOc1ccc(C[C@H]2CN(CC(=O)[O-])CCN(CC(=O)[O-])CCN(CC(=O)O)CCN2CC(=O)[O-])cc1.[Gd+3] [Example 5, Gadolinium-2,2′,2″-[(2S)-10-(carboxymethyl)-2-(4-{2-[2-(2-ethoxyethoxy)ethoxy]ethoxy}benzyl)-1,4,7,10-tetraazacyclododecane-1,4,7-triyl]triacetate] | >284 | 57 % of RC1 | 78 % of RC1 | −1.74 | –
COCCOCCOCCOc1ccc(C[C@@H]2CN(CC(=O)[O-])CCN(CC(=O)[O-])CCN(CC(=O)O)CCN2CC(=O)[O-])cc1.[Gd+3] [Example 3, Gadolinium-2,2′,2″-[(2R)-10-(carboxymethyl)-2-(4-{2-[2-(2-methoxyethoxy)ethoxy]ethoxy}benzyl)-1,4,7,10-tetraazacyclododecane-1,4,7-triyl]triacetate] | >166 | 49 % of RC1 | 120 % of RC1 | −2.05 | –
CCCCOc1ccc(C[C@H]2CN(CC(=O)[O-])CCN(CC(=O)[O-])CCN(CC(=O)O)CCN2CC(=O)[O-])cc1.[Gd+3] (single isomer, unassigned; stereoisomer 2) [Example 13] | >43 | 137 % of RC1 | 847 % of RC1 | – | –
CCOc1ccc(C[C@H]2CN(CC(=O)[O-])CCN(CC(=O)[O-])CCN(CC(=O)O)CCN2CC(=O)[O-])cc1.[Gd+3] (single isomer, unassigned; stereoisomer 2) [Example 11] | >146 | 49 % of RC1 | 96 % of RC1 | −1.37 | –
COCCOCCOCCOc1ccc(C[C@H]2CN(CC(=O)[O-])CCN(CC(=O)[O-])CCN(CC(=O)O)CCN2CC(=O)[O-])cc1.[Gd+3] [Example 1, Gadolinium-2,2′,2″-[(2S)-10-(carboxymethyl)-2-(4-{2-[2-(2-methoxyethoxy)-ethoxy]ethoxy}benzyl)-1,4,7,10-tetraazacyclododecane-1,4,7-triyl]triacetate] | >201 | 47 % of RC1 | 143 % of RC1 | −2.12 | –
CCOc1ccc(C[C@H]2CN(CC(=O)[O-])CCN(CC(=O)[O-])CCN(CC(=O)O)CCN2CC(=O)[O-])cc1.[Gd+3] (single isomer, unassigned; stereoisomer 1) [Example 10] | >23 | 104 % of RC1 | 212 % of RC1 | −1.34 | –
CCOCCOCCOc1ccc(C[C@H]2CN(CC(=O)[O-])CCN(CC(=O)[O-])CCN(CC(=O)O)CCN2CC(=O)[O-])nc1.[Gd+3] [Example 6, Gadolinium 2,2′,2″-[(2S)-10-(carboxymethyl)-2-({5-[2-(2-ethoxyethoxy)ethoxy]pyridin-2-yl}methyl)-1,4,7,10-tetraazacyclododecane-1,4,7-triyl]triacetate] | – | 47 % of RC1 | 174 % of RC1 | −1.96 | –
CCOc1ccc(CC2CN(CC(=O)[O-])CCN(CC(=O)[O-])CCN(CC(=O)O)CCN2CC(=O)[O-])cc1.[Gd+3] (single isomer, unassigned; diastereomer 1) [Example 8, Gadolinium-2,2′,2″-[10-(carboxymethyl)-2-(4-ethoxybenzyl)-1,4,7,10-tetraazacyclododecane-1,4,7-triyl]triacetate (racemic diastereomer 1)] | – | 143 % of RC1 | 208 % of RC1 | −1.33 | –
